Source: patent publication US20260130395A1, “Water Dispersible Botanical Compositions” (Aquila Black Limited, priority 2021, published 2026)

Assay: Stability of cannabinoid compounds and Vitamin E components in Beverage 1 (AB White) by LCMSMS
Format: physicochemical
Conditions: for Stability of Plant-Derived Cannabinoid Compounds in AB White, 8° C.: AB White stored at 8° C.; for Stability of Plant-Derived Cannabinoid Compounds in AB White, 21-25° C.: AB White stored at 21-25° C.

CCCCCc1cc(O)c(C/C=C(\C)CCC=C(C)C)c(O)c1 [CBG, cannabigerol]
Stability of Plant-Derived Cannabinoid Compounds in AB White, 8° C. (29 days): 4.91 µg/mL
Stability of Plant-Derived Cannabinoid Compounds in AB White, 8° C. (30 days): 4.79 µg/mL
Stability of Plant-Derived Cannabinoid Compounds in AB White, 8° C. (60 days): 4.68 µg/mL
Stability of Plant-Derived Cannabinoid Compounds in AB White, 8° C. (90 days): 4.66 µg/mL
Stability of Plant-Derived Cannabinoid Compounds in AB White, 8° C. (120 days): 4.89 µg/mL
Stability of Plant-Derived Cannabinoid Compounds in AB White, 8° C. (150 days): 4.83 µg/mL
Stability of Plant-Derived Cannabinoid Compounds in AB White, 8° C. (180 days): 4.71 µg/mL
Stability of Plant-Derived Cannabinoid Compounds in AB White, 8° C. (210 days): 4.73 µg/mL
Stability of Plant-Derived Cannabinoid Compounds in AB White, 8° C. (240 days): 4.69 µg/mL
Stability of Plant-Derived Cannabinoid Compounds in AB White, 8° C. (270 days): 4.72 µg/mL
Stability of Plant-Derived Cannabinoid Compounds in AB White, 8° C. (300 days): 4.74 µg/mL
Stability of Plant-Derived Cannabinoid Compounds in AB White, 8° C. (330 days): 4.69 µg/mL
Stability of Plant-Derived Cannabinoid Compounds in AB White, 8° C. (360 days): 4.66 µg/mL
Stability of Plant-Derived Cannabinoid Compounds in AB White, 8° C. (390 days): 4.68 µg/mL
Stability of Plant-Derived Cannabinoid Compounds in AB White, 8° C. (420 days): 4.66 µg/mL
Stability of Plant-Derived Cannabinoid Compounds in AB White, 8° C. (450 days): 4.68 µg/mL
Stability of Plant-Derived Cannabinoid Compounds in AB White, 8° C. (480 days): 4.64 µg/mL
Stability of Plant-Derived Cannabinoid Compounds in AB White, 8° C. (510 days): 4.49 µg/mL
Stability of Plant-Derived Cannabinoid Compounds in AB White, 8° C. (540 days): 4.53 µg/mL
Stability of Plant-Derived Cannabinoid Compounds in AB White, 8° C. (570 days): 4.46 µg/mL
Stability of Plant-Derived Cannabinoid Compounds in AB White, 21-25° C. (0 days): 4.87 µg/mL
Stability of Plant-Derived Cannabinoid Compounds in AB White, 21-25° C. (1 days): 4.73 µg/mL
Stability of Plant-Derived Cannabinoid Compounds in AB White, 21-25° C. (2 days): 4.72 µg/mL
Stability of Plant-Derived Cannabinoid Compounds in AB White, 21-25° C. (3 days): 4.75 µg/mL
Stability of Plant-Derived Cannabinoid Compounds in AB White, 21-25° C. (5 days): 4.89 µg/mL
Stability of Plant-Derived Cannabinoid Compounds in AB White, 21-25° C. (8 days): 4.90 µg/mL
Stability of Plant-Derived Cannabinoid Compounds in AB White, 21-25° C. (9 days): 4.79 µg/mL
Stability of Plant-Derived Cannabinoid Compounds in AB White, 21-25° C. (10 days): 4.68 µg/mL
Stability of Plant-Derived Cannabinoid Compounds in AB White, 21-25° C. (11 days): 4.74 µg/mL
Stability of Plant-Derived Cannabinoid Compounds in AB White, 21-25° C. (12 days): 4.88 µg/mL
Stability of Plant-Derived Cannabinoid Compounds in AB White, 21-25° C. (15 days): 4.87 µg/mL
Stability of Plant-Derived Cannabinoid Compounds in AB White, 21-25° C. (16 days): 4.80 µg/mL
Stability of Plant-Derived Cannabinoid Compounds in AB White, 21-25° C. (17 days): 4.80 µg/mL
Stability of Plant-Derived Cannabinoid Compounds in AB White, 21-25° C. (18 days): 4.72 µg/mL
Stability of Plant-Derived Cannabinoid Compounds in AB White, 21-25° C. (19 days): 4.68 µg/mL
Stability of Plant-Derived Cannabinoid Compounds in AB White, 21-25° C. (22 days): 4.68 µg/mL
Stability of Plant-Derived Cannabinoid Compounds in AB White, 21-25° C. (23 days): 4.85 µg/mL
Stability of Plant-Derived Cannabinoid Compounds in AB White, 21-25° C. (24 days): 4.80 µg/mL
Stability of Plant-Derived Cannabinoid Compounds in AB White, 21-25° C. (25 days): 4.86 µg/mL
Stability of Plant-Derived Cannabinoid Compounds in AB White, 21-25° C. (26 days): 4.78 µg/mL
Stability of Plant-Derived Cannabinoid Compounds in AB White, 21-25° C. (29 days): 4.76 µg/mL
Stability of Plant-Derived Cannabinoid Compounds in AB White, 21-25° C. (30 days): 4.73 µg/mL
Stability of Plant-Derived Cannabinoid Compounds in AB White, 21-25° C. (60 days): 4.83 µg/mL
Stability of Plant-Derived Cannabinoid Compounds in AB White, 21-25° C. (90 days): 4.65 µg/mL
Stability of Plant-Derived Cannabinoid Compounds in AB White, 21-25° C. (120 days): 4.59 µg/mL
Stability of Plant-Derived Cannabinoid Compounds in AB White, 21-25° C. (150 days): 4.63 µg/mL
Stability of Plant-Derived Cannabinoid Compounds in AB White, 21-25° C. (180 days): 4.79 µg/mL
Stability of Plant-Derived Cannabinoid Compounds in AB White, 21-25° C. (210 days): 4.75 µg/mL
Stability of Plant-Derived Cannabinoid Compounds in AB White, 21-25° C. (240 days): 4.79 µg/mL
Stability of Plant-Derived Cannabinoid Compounds in AB White, 21-25° C. (270 days): 4.62 µg/mL
Stability of Plant-Derived Cannabinoid Compounds in AB White, 21-25° C. (300 days): 4.67 µg/mL
Stability of Plant-Derived Cannabinoid Compounds in AB White, 21-25° C. (330 days): 4.71 µg/mL
Stability of Plant-Derived Cannabinoid Compounds in AB White, 21-25° C. (360 days): 4.69 µg/mL
Stability of Plant-Derived Cannabinoid Compounds in AB White, 21-25° C. (390 days): 4.70 µg/mL
Stability of Plant-Derived Cannabinoid Compounds in AB White, 21-25° C. (420 days): 4.72 µg/mL
Stability of Plant-Derived Cannabinoid Compounds in AB White, 21-25° C. (450 days): 4.73 µg/mL
Stability of Plant-Derived Cannabinoid Compounds in AB White, 21-25° C. (480 days): 4.46 µg/mL
Stability of Plant-Derived Cannabinoid Compounds in AB White, 21-25° C. (510 days): 4.51 µg/mL
Stability of Plant-Derived Cannabinoid Compounds in AB White, 21-25° C. (540 days): 4.48 µg/mL
Stability of Plant-Derived Cannabinoid Compounds in AB White, 21-25° C. (570 days): 4.47 µg/mL
